Reference: US5744494A, “Synergistic compositions containing benzimidazole anthelmintics and methylenedioxyphenyl compounds” (priority 1993, dated 1998)

Assays:
in vivo = details: for AUC: goat, po, 7.5 mg/kg
Protocol: In order to minimise interindividual variations our experimental protocol was designed as a crossover (each animal was used as its own control). A five week wash-out period was allowed between crossovers. Six goats were used in this experiment.
First period: Fenbendazole (Panacur 2.5%) was administered orally at a dose rate of 7.5 mg/kg. Blood samples were taken prior to drug administration and 0.25, 0.5, 1, 2, 4, 8, 12, 24, 32, 48, 72 and 96 hours thereafter.
Second period: One hour before administration of fenbendazole (7.5 mg/kg) the animals received a dose of piperonyl butoxide (0.5 g/kg) given intramuscularly. Blood samples were taken as in the first period.
Plasma samples were analysed for fenbendazole by High Performance Liquid Chromatography.

[1] = system: benzimidazole resistant Ostertagia circumcincta and Haemonchus contortus; test: Faecal egg counts in infected lambs (McMaster egg counting technique); type: in vivo
Protocol: (§1) A study was carried out to determine the efficacy of the piperonyl butoxide: fenbendazole combination and to compare it with piperonyl-butoxide and fenbendazole alone against benzimidazole resistant abomasal parasites.
(§2) Twenty-four parasite naive Suffolk cross lambs were allocated into four groups of six. Each lamb received an oral dose of 6,000 benzimidazole resistant Ostertagia circumcincta and 2,400 benzimidazole resistant Haemonchus contortus.
(§3) Twenty-eight days after infection animals were treated as follows:
(§4) Group 2 Piperonyl butoxide (63 mg/kg) by stomach tube.
(§5) Group 3 Fenbendazole (5 mg/kg) by stomach tube.
(§6) Group 4 Piperonyl butoxide (63 mg/kg) and fenbendazole
(§7) (5 mg/kg) by stomach tube.
(§8) All lambs were faecal sampled and killed seven days after treatment (day 35). Nematode egg numbers were determined in faeces by the McMaster egg counting technique (Gordon and Whitlock (1939) J. Council for Scientific and Industrial Res., 12,50) and numbers of O. circumcincta were determined by the dilution method of Ritchie et al. (1966), Amer J. Vet. Res., 27, 659-667. Total abomasal counts of H. contortus were determined.

[2] = system: benzimidazole resistant Ostertagia circumcincta; test: Numbers of O. circumcincta in sheep at necropsy (dilution method); type: in vivo
Protocol: as §1, §2, §3, §4, §5, §6, §7, §8

[3] = system: benzimidazole resistant Haemonchus contortus; test: Total abomasal counts of H. contortus in sheep at necropsy; type: in vivo; details: for numbers of H.contortus at necropsy, effect in words: 7 days after treatment; for Mean ±SD numbers of H. contortus in sheep killed 7 days after treatment: piperonyl butoxide 63 mg/kg and/or fenbendazole 5 mg/kg by stomach tube, no treatment 345 ± 69
Protocol: as §1, §2, §3, §4, §5, §6, §7, §8

[4] = system: hepatocytes cultured from rats
Source text: An experiment using hepatocytes cultured from rats has been initiated to determine the metabolic interactions of piperonyl butoxide and fenbendazole (50 micromoles).

[5] = pretreatment with 2-diethylaminoethyl-2,2-diphenylvalerate hydrochloride and piperonyl butoxide; Food Chem. Toxicol. 1992, 30(12), 1021-30; cited from earlier work

**Q.** What does the source list for `COC(=O)Nc1nc2ccc(Sc3ccccc3)cc2[nH]1` [Fenbendazole, fenbendazole]?
**A.** area under the plasma concentration-time curve (AUC), change in words (in vivo): significant increase; residence time, change in words (in vivo): significantly prolonged; AUC (in vivo; Area under plasma-concentration-time curve (Active alone)): 4170 ng·h/mL; AUC (in vivo; Area under plasma-concentration-time curve (Active plus piperonyl butoxide)): 16600 ng·h/mL; Mean ±SD faecal egg counts in sheep seven days after treatment ([1]; piperonyl butoxide 63 mg/kg and/or fenbendazole 5 mg/kg by stomach tube, no treatment 491 ± 267): 100 ± 84 Eggs per gram of faeces; reduction in faecal egg counts ([1]; seven days after treatment): 79.7%; reduction of number of O.circumcincta in the abomasa, in words ([2]; at necropsy, alone): Neither piperonyl butoxide nor fenbendazole alone significantly reduced; Mean ±SD numbers of O. circumcincta in sheep killed 7 days after treatment ([2]; piperonyl butoxide 63 mg/kg and/or fenbendazole 5 mg/kg by stomach tube, no treatment 2985 ± 654): 2875 ± 1308; numbers of H.contortus at necropsy, effect in words [3]: significantly reduced; Mean ±SD numbers of H. contortus in sheep killed 7 days after treatment [3]: 58 ± 29

**Q.** Which results are given for `CCCCOCCOCCOCc1cc2c(cc1CCC)OCO2` [Piperonyl butoxide, piperonyl butoxide]?
**A.** numbers of H.contortus at necropsy, effect in words [3]: no effect; Mean ±SD numbers of H. contortus in sheep killed 7 days after treatment [3]: 320 ± 133; effect on oxidative metabolism of fenbendazole by rat liver cells [4]: inhibiting the oxidative metabolism of fenbendazole

**Q.** Which “acute toxic effects on the kidneys of mice” value [5] does the source give for `c1ccc2[nH]c(-c3cscn3)nc2c1` [thiabendazole] here?
**A.** enhanced

**Q.** Which AUC (in vivo; Area under plasma-concentration-time curve (Active alone), active alone, goats, fenbendazole 7.5 mg/kg oral) does the source give for `COC(=O)Nc1nc2ccc([S+]([O-])c3ccccc3)cc2[nH]1` (stereo not shown) [Fenbendazole sulfoxide, fenbendazole sulfoxide] here?
**A.** 7720 ng·h/mL

**Q.** And the “concentrations of the sulfoxide and sulfone metabolites” value [4]?
**A.** much reduced
